Values of other authors as cited in patent US7939522B1, “Dosage formulations for acetylcholinesterase inhibitors” (priority 1999, dated 2011).

Assays:
[1] = reported (Thomsen, 1990)
[2] = tested on: sleep; details: humans, systemic administration late in the day or at night (Sitaram, 1979, Reimann, 1994)

SMILES	half life [1] [h]	effect on sleep [2]
COc1ccc2c3c1O[C@H]1C[C@@H](O)C=C[C@@]31CCN(C)C2 [galanthamine]	4.5 to 8	–
CNC(=O)Oc1ccc2c(c1)[C@]1(C)CCN(C)[C@@H]1N2C [physostigmine]	–	disturb sleep and produce awakenings
